Patent US8846749B2, “Anticancer-aiding compound, method for preparing the same, anticancer-aiding composition containing the same and method for reducing anticancer drug resistance using the same” (Ewha University-Industry Collaboration Foundation, priority 2009, dated 2014)

System: not given
Test: not given
Details: not given

For `O=c1c2ccccc2sc2cc(OCC3CS3)cc(O)c12` (stereo not shown) [Compound 8, 1-hydroxy-3-(thiiran-2-ylmethoxy)-9H-thioxanthen-9-one], which melting point is on record?
The melting point was 149 °C.

For `O=c1c2ccccc2oc2cc(OCC(O)CCl)cc(O)c12` (stereo not shown) [Compound 2, 3-(3-chloro-2-hydroxypropoxy)-1-hydroxy-9H-xanthen-9-one], which melting point is on record?
Its melting point is 144 °C.

For `O=c1c2ccccc2sc2cc(OCC(O)CCl)cc(O)c12` (stereo not shown) [Compound 10, 3-(3-chloro-2-hydroxypropoxy)-1-hydroxy-9H-thioxanthen-9-one], which melting point is on record?
Its melting point is 151 °C.

For `COc1cccc2c(=O)c3c(O)cc(OCC4CS4)cc3oc12` (stereo not shown) [Compound 3, 1-hydroxy-5-methoxy-3-(thiiran-2-ylmethoxy)-9H-xanthen-9-one], which melting point is on record?
Its melting point is 187 °C.

For `COc1cccc2c(=O)c3c(O)cc(OCC(O)CO)cc3oc12` (stereo not shown) [Compound 7, 3-(2,3-dihydroxypropoxy)-1-hydroxy-5-methoxy-9H-xanthen-9-one], which melting point is on record?
The melting point was 189 °C.

For `O=c1c2ccc3ccccc3c2oc2cc(OCC3CS3)cc(OCC3CS3)c12` (stereo not shown) [Compound 12, 8,10-bis(thiiran-2-ylmethoxy)-7H-benzo[c]xanthen-7-one], which melting point is on record?
The melting point was 202 °C.

With `O=c1c2cc3ccccc3cc2oc2cc(OCC3CO3)cc(O)c12` (stereo not shown) [Example 20, 1-hydroxy-3-(oxiran-2-ylmethoxy)-12H-benzo[b]xanthen-12-one] as the molecule, how does the melting point read?
Its melting point is 201 to 202 °C.

For `COc1cccc2c(=O)c3c(O)cc(OCC(O)CCl)cc3oc12` (stereo not shown) [Compound 1, 3-(3-chloro-2-hydroxypropoxy)-1-hydroxy-5-methoxy-9H-xanthen-9-one], which melting point is on record?
Its melting point is 184 °C.

With `O=c1c2ccccc2oc2cc(OCC(O)CO)cc(O)c12` (stereo not shown) [Compound 6, 3-(2,3-dihydroxypropoxy)-1-hydroxy-9H-xanthen-9-one] as the molecule, how does the melting point read?
The melting point was 170 °C.

With `COc1cccc2c(=O)c3c(OCC4CS4)cc(OCC4CS4)cc3oc12` (stereo not shown) [Compound 5, 1,3-bis(thiiran-2-ylmethoxy)-5-methoxy-9H-xanthen-9-one] as the molecule, how does the melting point read?
The melting point was 240 °C.

For `O=c1c2c(OCC3CS3)cc(OCC3CS3)cc2oc2ccc3ccccc3c12` (stereo not shown) [Compound 15, 9,11-bis(thiiran-2-ylmethoxy)-12H-benzo[a]xanthen-12-one], which melting point is on record?
Its melting point is 225 to 226 °C.

With `COc1cccc2c(=O)c3c(O)cc(OCC(S)CCl)cc3oc12` (stereo not shown) [Compound 13, 3-(3-chloro-2-mercaptopropoxy)-1-hydroxy-5-methoxy-9H-xanthen-9-one] as the molecule, how does the melting point read?
The melting point was 125 °C.

For `O=c1c2c(O)cc(OCC3CS3)cc2oc2ccc3ccccc3c12` (stereo not shown) [Compound 14, 11-hydroxy-9-(thiiran-2-ylmethoxy)-12H-benzo[a]xanthen-12-one], which melting point is on record?
Its melting point is 167 to 168 °C.

Which melting point does the source give for `O=c1c2c(OCC3CO3)cc(OCC3CO3)cc2oc2ccc3ccccc3c12` (stereo not shown) [Compound 17, 9,11-bis(oxiran-2-ylmethoxy)-12H-benzo[a]xanthen-12-one] here?
Its melting point is 198 to 200 °C.

For `O=c1c2ccccc2sc2cc(OCC(S)CCl)cc(O)c12` (stereo not shown) [Compound 11, 3-(3-chloro-2-mercaptopropoxy)-1-hydroxy-9H-thioxanthen-9-one], which melting point is on record?
Its melting point is 134 °C.

With `COc1cc(OCC(O)CCl)cc2oc3ccccc3c(=O)c12` (stereo not shown) [Compound 9, 3-(3-chloro-2-hydroxypropoxy)-1-methoxy-9H-xanthen-9-one] as the molecule, how does the melting point read?
Its melting point is 107 °C.

Target: P-gp (Homo sapiens, UniProt P08183)
Sequence (P08183 whole entry): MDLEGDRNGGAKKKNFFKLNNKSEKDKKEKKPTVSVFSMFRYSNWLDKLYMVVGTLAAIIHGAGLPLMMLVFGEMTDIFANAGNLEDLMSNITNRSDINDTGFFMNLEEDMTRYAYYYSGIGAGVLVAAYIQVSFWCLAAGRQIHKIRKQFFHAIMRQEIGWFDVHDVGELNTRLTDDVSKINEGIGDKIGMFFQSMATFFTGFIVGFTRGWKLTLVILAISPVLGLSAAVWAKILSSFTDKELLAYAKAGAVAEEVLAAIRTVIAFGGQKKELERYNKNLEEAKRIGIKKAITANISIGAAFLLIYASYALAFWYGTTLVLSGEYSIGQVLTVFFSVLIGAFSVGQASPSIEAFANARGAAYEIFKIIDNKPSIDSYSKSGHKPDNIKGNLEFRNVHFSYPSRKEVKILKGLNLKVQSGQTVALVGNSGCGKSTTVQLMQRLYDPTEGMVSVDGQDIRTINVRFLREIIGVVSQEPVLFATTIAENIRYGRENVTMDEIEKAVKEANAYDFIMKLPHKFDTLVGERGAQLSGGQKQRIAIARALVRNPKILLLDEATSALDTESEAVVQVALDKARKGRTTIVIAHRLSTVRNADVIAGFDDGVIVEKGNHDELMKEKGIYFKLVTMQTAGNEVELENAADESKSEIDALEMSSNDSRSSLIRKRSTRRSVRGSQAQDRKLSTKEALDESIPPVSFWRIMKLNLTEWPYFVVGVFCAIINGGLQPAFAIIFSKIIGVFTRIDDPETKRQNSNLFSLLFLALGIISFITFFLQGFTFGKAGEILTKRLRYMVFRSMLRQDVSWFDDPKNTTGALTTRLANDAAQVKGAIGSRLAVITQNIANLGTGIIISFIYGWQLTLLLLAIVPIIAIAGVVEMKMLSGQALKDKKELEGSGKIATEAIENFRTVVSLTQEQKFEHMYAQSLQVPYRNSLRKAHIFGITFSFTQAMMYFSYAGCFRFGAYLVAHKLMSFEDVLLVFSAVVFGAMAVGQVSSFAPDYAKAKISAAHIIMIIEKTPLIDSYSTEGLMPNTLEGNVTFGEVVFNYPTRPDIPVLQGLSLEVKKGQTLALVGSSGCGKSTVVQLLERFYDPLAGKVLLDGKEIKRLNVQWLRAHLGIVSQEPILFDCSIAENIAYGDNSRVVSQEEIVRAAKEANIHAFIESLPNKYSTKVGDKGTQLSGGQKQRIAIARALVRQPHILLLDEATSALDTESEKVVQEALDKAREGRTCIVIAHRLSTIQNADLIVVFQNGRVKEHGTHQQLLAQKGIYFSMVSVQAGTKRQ
Test: not given
Details: 1 h, 100 μM

For `O=c1c2cc3ccccc3cc2oc2cc(OCC3CS3)cc(OCC3CS3)c12` (stereo not shown) [Compound 19, 1,3-bis(thiiran-2-ylmethoxy)-12H-benzo[b]xanthen-12-one], which “Cellular efflux amount of daunomycin (%)” value is on record?
Its value is 42.45 ± 7.23 %.

Which “Cellular efflux amount of daunomycin (%)” value does the source give for `O=c1c2ccc3ccccc3c2oc2cc(OCC3CS3)cc(OCC3CS3)c12` (stereo not shown) [Compound 12, 8,10-bis(thiiran-2-ylmethoxy)-7H-benzo[c]xanthen-7-one] here?
Its value is 40.39 ± 4.38 %.

For `O=c1c2cc3ccccc3cc2oc2cc(OCC3CS3)cc(O)c12` (stereo not shown) [Compound 18, 1-hydroxy-3-(thiiran-2-ylmethoxy)-12H-benzo[b]xanthen-12-one], which “Cellular efflux amount of daunomycin (%)” value is on record?
Its value is 44.15 ± 5.08 %.

With `O=c1c2c(OCC3CS3)cc(OCC3CS3)cc2oc2ccc3ccccc3c12` (stereo not shown) [Compound 15, 9,11-bis(thiiran-2-ylmethoxy)-12H-benzo[a]xanthen-12-one] as the molecule, how does the “Cellular efflux amount of daunomycin (%)” value read?
Its value is 40.04 ± 5.33 %.

Which “Cellular efflux amount of daunomycin (%)” value does the source give for `O=c1c2c(O)cc(OCC3CS3)cc2oc2ccc3ccccc3c12` (stereo not shown) [Compound 14, 11-hydroxy-9-(thiiran-2-ylmethoxy)-12H-benzo[a]xanthen-12-one] here?
The value was 64.81 ± 20.45%.

System: MCF-7/ADR cells
Test: Effects of compounds on cytotoxicity of daunomycin (SRB staining)
Assay type: cell-based
Details: Homo sapiens, NCI/ADR-RES, daunomycin alone (DMSO control), 2-hour incubation, SRB after 3 days
Experimental: The cells were cultured to confluence on the plate at 37° C. for 24 hours.
At this time, the group to which only DMSO was added in place of the compounds in accordance with the present invention was taken as a control. […] After 3 days, cytotoxicity was examined according to an SRB staining method which is briefly described as follows. Cells were fixed with 10% TCA for one hour, washed 4 times with water, and then dried. An SRB reagent (0.4% w/v in 1% acetic acid) was added to each well and one hour later, the plate was washed 4 times with 1% acetic acid.

Which IC50 does the source give for `COc1cccc2c1C(=O)c1c(O)c3c(c(O)c1C2=O)C[C@@](O)(C(C)=O)C[C@@H]3O[C@H]1C[C@H](N)[C@H](O)[C@H](C)O1` [DNM, Daunomycin] here?
The IC50 was 25.6 µM.
